{"source": "patent US20150038526A1", "about": "“FLUORINE-CONTAINING 5-[2-(PYRID-3-YL)-ETHYL]-2,3,4-TETRAHYDRO-1H-PYRIDO[4,3-B]INDOLES AS AGENTS FOR REDUCING UNCONTROLLED PROTEIN AGGREGATION” (FEDERALNOE GOSUDARSTVENNOE BUDZHETNOE UCHREZHDENIE NAUKI …, priority 2011, published 2015)", "origin": "cited, not measured here", "system": "gamma-synuclein protein", "details": "tissues of the nervous system of model animals", "data": [{"smiles": "Cc1ccc2c(c1)c1c(n2CCc2ccc(C)nc2)CCN(C)C1", "note": "[Dimebon]", "values": [{"measurement": "formation and/or elimination of amyloid-like inclusions formed by gamma-synuclein", "value": "modulates the molecular cellular processes of formation and/or elimination of pathological protein depositions"}]}]}
